# Test results taken from US20170190744A1 (Vicuron Pharmaceuticals, Inc., priority 2015, published 2017).
# pKd: −log10 of the molar value. “And” between values parts separate entries of the source, which are not always exact repeats. Equal values may be shown once. Read-outs that look alike come from different tables or passages of the source.
# Experiments:
# [1] = target: N,N′-diacetyl-Lys-D-Ala-D-Ala; assay: ITC, 25 °C, 513 µM HSA present
# [2] = target: N,N′-diacetyl-Lys-D-Ala-D-Ala; assay: ITC, 25 °C, [HSA] 0 µM
# [3] = target: N,N′-diacetyl-Lys-D-Ala-D-Ala; assay: ITC, 10 °C, [HSA] 0 µM
# [4] = tested on: gram positive bacteria; assay: MIC by broth microdilution (NCCLS), with or without 30% bovine serum (Example 19); type: cell-based
# Description: (§1) The compounds were prepared according to the examples above and the methods described in U.S. Patent Application Publication No. 2004/0142883. Individual dalbavancin compounds were purified by HPLC. […] Before dissolution, each sample was analyzed by HPLC and quantified. […] Louis, Mo.), Gentamycin (GE) (Sigma Chemical Co., St. Louis, Mo.), Penicillin G (Pen.G) (Sigma Chemical Co., St. Louis, Mo.), and Amphotericin B (Amph.B) (Sigma Chemical Co., St. Louis, Mo.). The microorganisms used were reference strains obtained from the American Type Culture Collection (ATCC) (Rockville, Md.), SmithKline and French Laboratories (SKF), and the Upjohn Company (UC) (Kalamazoo, Mich.).
# [5] = tested on: gram-negative bacteria; assay: as above; type: cell-based
# Description: as §1
# [6] = tested on: Candida albicans SKF 2270; assay: as above; type: cell-based; conditions: SKF2270
# Description: MICs were determined by the broth microdilution methodology following the standard NCCLS procedure (NCCLS Document M7-A6, Vol. 23, No. 2, “Methods for dilution antimicrobial susceptibility tests for bacteria that grow aerobically.” Approved Guideline. January 2003, which can be herein incorporated by reference in its entirety), with or without 30% adult bovine serum (BS) (PAA Laboratories GmBH, Haidmannweg Pasching Austria), using bacterial innocula at approximately 5×10^5 CFU/ml. The media employed included cation-adjusted Müller Hinton broth (Difco Laboratories, Detroit, Mich.) that was used that was adjusted with CaCl2 and MgCl2 to a final concentration of 20 mg/L and 10 mg/L, respectively. Tests were read following 20-24 hours of incubation at 35° C.
# [7] = tested on: S. pneumoniae; assay: MIC of study organisms (NCCLS microdilution); type: cell-based; conditions: S. pneumoniae strain 10813
# Description: (§2) MICs were determined in MHB by standard NCCLS microdilution techniques. […] All MICs were performed at least in duplicate.
# [8] = parameters: species or system Sprague-Dawley rats; conditions: rat, in vivo, iv, 20 mg/kg
# Description: Mass balance studies were conducted to determine the excretion pattern of dalbavancin following a single intravenous (IV) infusion of dalbavancin in male rats. […] Water and methanol cage washes were also collected.
# [9] = tested on: gram-positive bacteria; assay: MIC by broth microdilution (NCCLS), IsoB0 and reference compounds; type: cell-based
# Description: Müller Hinton broth (Difco Laboratories, Detroit, Mich., USA) adjusted with CaCl2 and MgCl2 to a final concentrations of 20 mg/L and 10 mg/L respectively.
# Adult bovine serum (BS) (batch A05123-159 PAA Laboratories GmBH Haidmannweg Pasching Austria).
# The microorganisms used are reference standard strains from the American Type Culture Collection (ATCC, Rockville, USA), Smith Kline and French Laboratories (SKF) and the Upjohn Company (UC, Kalamazoo, Mich., USA).
# (§3) MICs were determined by the broth microdilution methodology following the standard NCCLS procedure, with or without 30% bovine serum, using bacterial inocula of approximately 5×10^5 CFU/mL. Tests were read after 20-24 h incubation at 35° C.
# [10] = tested on: gram-negative bacteria; assay: as above; type: cell-based
# Description: as §3
# [11] = In vivo biological activity of IsoB0
# [12] = tested on: Candida albicans SKF2270; assay: MIC by broth microdilution (NCCLS), IsoB0 and reference compounds; type: cell-based
# [13] = tested on: S. aureus; assay: MIC of study organisms (NCCLS microdilution); type: cell-based; conditions: Staphylococcus aureus
# Description: as §2
# [14] = target: N,N′-diacetyl-Lys-D-Ala-D-Ala; assay: ITC, 25 °C, apparent, 601 µM HSA present
# [15] = target: N,N′-diacetyl-Lys-D-Ala-D-Ala; assay: ITC, 37 °C, [HSA] 0 µM
# [16] = target: N,N′-diacetyl-Lys-D-Ala-D-Ala; assay: ITC, 37 °C, apparent, 482 µM HSA present
# [17] = target: N,N′-diacetyl-Lys-D-Ala-D-Ala; assay: ITC, 25 °C, apparent, 288 µM HSA present
# [18] = target: human serum proteins; assay: cell-based or functional assay
# [19] = target: N,N′-diacetyl-Lys-D-Ala-D-Ala; assay: ITC, 25 °C, apparent, 430 µM HSA present
# [20] = target: N,N′-diacetyl-Lys-D-Ala-D-Ala; assay: ITC, 25 °C, apparent, 104 µM HSA present
# [21] = target: N,N′-diacetyl-Lys-D-Ala-D-Ala; assay: ITC, 25 °C, free dalbavancin
# [22] = E. faecalis ATCC29212 ref. strain
# [23] = Enterococcus faecalis, ATCC7080
# [24] = S. aureus ATCC29213 ref. strain
# [25] = Staphylococcus aureus Smith ATCC19636
# [26] = Pseudomonas aeruginosas ATCC 10145
compound,measurement,setting,value
Vancomycin hydrochloride (peptide),Ka,[1],290000 M⁻¹
same,N,[1],1.05
same,Ka,[2],340000 M⁻¹ and 360000 M⁻¹
same,N,[2],0.91 and 0.97
same,Ka,[3],690000 M⁻¹
same,N,[3],1.1
"CC(C)CCCCCCCCC(=O)N[C@H]1[C@H](Oc2c3cc4cc2Oc2ccc(cc2Cl)[C@@H](O)[C@@H]2NC(=O)[C@H](NC(=O)[C@@H]4NC(=O)[C@H]4NC(=O)[C@@H](Cc5ccc(cc5)O3)NC(=O)[C@H](N(C)C)c3ccc(O)c(c3)Oc3cc(O)c(Cl)c4c3)c3ccc(O)c(c3)-c3c(O[C@H]4O[C@H](CO)[C@@H](O)[C@H](O)[C@@H]4O)cc(O)cc3[C@@H](C(=O)NCCCN(C)C)NC2=O)O[C@H](C(=O)O)[C@@H](O)[C@@H]1O [Composition B2, N^15,N^15-dimethyl dalbavancin B0]",MIC,"[4]; ATCC6633, Bacillus subtilis ATCC 6633, read-out: MIC",≤ 0.03 µg/mL
same,MIC,"[4]; ATCC7080, Enterococcus faecalis ATCC 7080, read-out: MIC",0.06 µg/mL
same,MIC,"[4]; ATCC19636, Staphylococcus aureus Smith ATCC 19636, read-out: MIC",0.125 µg/mL
same,MIC,"[4]; Enterococcus faecalis, E. faecalis ATCC29212 ref. strain, read-out: MIC",0.125 µg/mL
same,MIC,"[4]; Staphylococcus aureus, ATCC29213, S. aureus ATCC 29213 ref. strain, read-out: MIC",0.125 µg/mL
same,MIC,"[4]; Staphylococcus aureus, S. aureus Smith + 30% BS, read-out: MIC",2 µg/mL
same,MIC,"[4]; Staphylococcus epidermidis, ATCC12228, S. epidermidis ATCC 12228, read-out: MIC",≤ 0.03 µg/mL
same,MIC,"[4]; Streptococcus pneumoniae, S. pneumoniae Felton UC41, read-out: MIC",≤ 0.03 µg/mL
same,MIC,"[4]; Streptococcus pyrogenes SKF 13400, read-out: MIC",≤ 0.03 µg/mL
same,MIC,"[5]; ATCC881, Proteus vulgaris ATCC 881, read-out: MIC",32 µg/mL
same,MIC,"[5]; Escherichia coli SKF 12140, read-out: MIC",32 µg/mL
same,MIC,"[5]; Escherichia coli, E. coli ATCC25922 ref. strain, read-out: MIC",32 µg/mL
same,MIC,"[5]; Pseudomonas aeruginosas ATCC 10145, read-out: MIC",16 µg/mL
same,MIC,"[6]; Candida albicans SKF 2270, read-out: MIC",32 µg/mL
Penicillin,MIC,[7],0.008 µg/mL
"CNC1C(=O)NC2Cc3ccc(c(Cl)c3)Oc3cc4cc(c3OC3OC(C(=O)O)C(O)C(O)C3NC(=O)CCCCCCCCC(C)C)Oc3ccc(cc3Cl)C(O)C3NC(=O)C(NC(=O)C4NC(=O)C(NC2=O)c2cc(O)cc(c2)Oc2cc1ccc2O)c1ccc(O)c(c1)-c1c(OC2OC(CO)C(O)C(O)C2O)cc(O)cc1C(C(=O)NCCCN(C)C)NC3=O [Composition B0, ristomycin A aglycone, 5,31-dichloro-38-de(methoxycarbonyl)-7-demethyl-19-deoxy-56-O-(2-deoxy-2-((10-methyl-1-oxoundecyl)amino)-beta-D-glucopyranuronosyl)-38-(((3-(dimethylamino)propyl)amino)-carbonyl)-42-O-alpha-D-mannopyranosyl-N^15-methyl-]",MIC,[4]; Bacillus subtilis ATCC6633,≦0.06 mg/L
same,MIC,[4]; [22],0.125 µg/mL
same,MIC,[4]; [23],0.125 µg/mL
same,MIC,[4]; [24],0.125 µg/mL
same,MIC,[4]; S. aureus Smith + 30% BS,2 µg/mL
same,MIC,[4]; S. epidermidis ATCC12228,≦0.06 mg/L
same,MIC,[4]; S. pneumoniae Felton UC41,≦0.06 mg/L
same,MIC,[4]; [25],0.25 µg/mL
same,MIC,[4]; Streptococcus pyrogenes SKF 13400,≦0.06 mg/L
same,MIC,[5]; E. coli ATCC25922 ref. strain,>64 µg/mL
same,MIC,[5]; Escherichia coli SKF 12140,>64 µg/mL
same,MIC,"[5]; Proteus vulgaris, ATCC881",>64 µg/mL
same,MIC,[5]; [26],>64 µg/mL
same,MIC,[6]; Candida albicans,>64 µg/mL
CN[C@H]1C(=O)N[C@@H]2Cc3ccc(cc3)Oc3cc4cc(c3O[C@@H]3O[C@H](C(=O)O)[C@@H](O)[C@H](O)[C@H]3NC(=O)CCCCCCCCC(C)C)Oc3ccc(cc3Cl)[C@@H](O)[C@@H]3NC(=O)[C@H](NC(=O)[C@@H]4NC(=O)[C@@H](NC2=O)c2cc(cc(O)c2Cl)Oc2cc1ccc2O)c1ccc(O)c(c1)-c1c(O[C@H]2O[C@H](CO)[C@@H](O)[C@H](O)[C@@H]2O)cc(O)cc1[C@@H](C(=O)NCCCN(C)C)NC3=O [^3H-dalbavancin],fraction of excreted radioactivity eliminated in feces,[8],⅓
same,fraction of excreted radioactivity eliminated in urine,[8],⅔
CNC1C(=O)NC2Cc3ccc(cc3)Oc3cc4cc(c3OC3OC(C(=O)O)C(O)C(O)C3NC(=O)CCCCCCCCC(C)C)Oc3ccc(cc3Cl)C(O)C3NC(=O)C(NC(=O)C4NC(=O)C(NC2=O)c2cc(cc(O)c2Cl)Oc2cc1ccc2O)c1ccc(O)c(c1)-c1c(OC2OC(CO)C(O)C(O)C2O)cc(O)cc1C(C(=O)NCCCN(C)C)NC3=O (stereo not shown) [IsoB0],MIC,[9]; Bacillus subtilis ATCC6633,≦0.06 mg/L
same,MIC,[9]; [22],0.25 µg/mL
same,MIC,[9]; [23],0.25 µg/mL
same,MIC,[9]; [24],0.25 µg/mL
same,MIC,[9]; S. aureus Smith + 30% BS,16 µg/mL
same,MIC,[9]; S. epidermidis ATCC12228,0.125 µg/mL
same,MIC,[9]; S. pneumoniae Felton UC41,0.125 µg/mL
same,MIC,[9]; [25],0.5 µg/mL
same,MIC,[9]; Streptococcus pyogenes SKF13400,0.06 µg/mL
same,activity against a panel of gram-positive bacteria,[9]; compared with dalbavancin,very similar to dalbavancin
same,MIC,[10]; E. coli ATCC25922 ref. strain,64 µg/mL
same,MIC,[10]; Escherichia coli SKF 12140,64 µg/mL
same,MIC,"[10]; Proteus vulgaris, ATCC881",>64 µg/mL
same,MIC,[10]; [26],>64 µg/mL
same,in vivo biological activity,[11],comparable to that of dalbavancin B0
same,MIC,[12],>64 µg/mL
COc1cccc(OC)c1C(=O)N[C@@H]1C(=O)N2[C@@H]1SC(C)(C)[C@@H]2C(=O)O [Methicillin],MIC,"[13]; MRSA, S. aureus strain MRSA",> 8 µg/mL
same,MIC,[13]; S. aureus strain 25923,0.12 µg/mL
same,MIC,[13]; S. aureus strain 31005,0.12 µg/mL
same,MIC,[13]; S. aureus strain 33591,> 8 µg/mL
same,MIC,[13]; S. aureus strain 307109,> 8 µg/mL
same,MIC,[13]; S. aureus strain Smith,0.12 µg/mL
Dalbavancin (peptide),N,[14],0.86
same,N,[15],0.82
same,N,[16],0.179
same,N,[17],0.9
same,degree of binding estimated from MIC difference,[18],96%
same,N,[19],1.24
same,N,[20],1.38
same,pKd,[21],5.52
